Results: ChEMBL document CHEMBL1133856, “2-Aryl indole NK(1) antagonists: optimisation of the amide substituent” (Bioorg Med Chem Lett, 2001)
Where “and” joins values, the source holds several entries; their conditions need not be identical. Equal entries are not always repeated.

Columns and labels:
Substance-P receptor = Substance-P receptor (Homo sapiens, UniProt P25103); assay: Ability to displace [125I]-labeled substance P from human cloned Tachykinin receptor 1 in CHO cells.; type: cell-based
Gerbillinae [1] = assay: In vivo percent inhibition of gerbil foot tapping 2 hours after iv administration of 1 mg/kg; type: functional
Gerbillinae [2] = assay: In vivo percent inhibition of gerbil foot tapping 0 hours after iv administration of 1 mg/kg; type: functional
Gerbillinae [3] = assay: In vivo percent inhibition of gerbil foot tapping 0 hours after iv administration of 3 mg/kg; type: functional
Gerbillinae [4] = assay: In vivo percent inhibition of gerbil foot tapping 2 hours after iv administration of 3 mg/kg; type: functional
[5] = Oral bioavailability in rat; type: ADME, organism-based; conditions: in vivo
[6] = Plasma half life determined in rat; type: ADME, organism-based; conditions: read-out: Time (converted)
Gerbillinae [7] = assay: In vivo percent inhibition of gerbil foot tapping 0 hours after iv administration at 3 mg/kg; type: functional
[8] = Time for maximum plasma concentration determined in rat; type: ADME, organism-based
[9] = Plasma clearance rate determined in rat; type: ADME, organism-based
[10] = Mean residence time determined in rat; type: ADME, organism-based; conditions: in vivo, read-out: Time
[11] = Steady state volume of distribution determined in rat; type: ADME, organism-based; conditions: in vivo, read-out: Vss
[12] = Maximum plasma concentration determined in rat; type: ADME, organism-based
Gerbillinae [13] = assay: Inhibitory dose against gerbil foot tapping 2 hours after iv administration; type: functional
[14] = Half life of compound determined in rat; type: ADME, organism-based; conditions: in vivo, read-out: Time (converted)

Substance-P receptor, sequence (P25103 whole entry): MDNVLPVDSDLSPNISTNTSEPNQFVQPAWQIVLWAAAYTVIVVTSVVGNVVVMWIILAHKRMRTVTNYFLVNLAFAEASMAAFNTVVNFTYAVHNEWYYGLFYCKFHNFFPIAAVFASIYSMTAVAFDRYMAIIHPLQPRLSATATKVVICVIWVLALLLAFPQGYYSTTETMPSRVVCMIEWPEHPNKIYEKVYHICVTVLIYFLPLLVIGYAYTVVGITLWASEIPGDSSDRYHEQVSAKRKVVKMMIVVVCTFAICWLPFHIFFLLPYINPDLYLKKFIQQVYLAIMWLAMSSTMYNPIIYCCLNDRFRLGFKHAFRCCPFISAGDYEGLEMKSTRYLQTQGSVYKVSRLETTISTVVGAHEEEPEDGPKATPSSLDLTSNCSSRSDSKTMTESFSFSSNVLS

## CC(=O)C1(c2ccccc2)CCN(C(=O)CCc2c(-c3ccc(Cl)cc3)n(C)c3ccc(Cl)cc23)CC1
Substance-P receptor
  IC50: 0.53 nM

## CN(C(=O)CN1CCN(C(=O)CCc2c(-c3ccc(Cl)cc3)n(C)c3ccc(Cl)cc23)CC1)c1ccccc1
Gerbillinae [1]
  inhibition in vivo at 1 mg/kg: 6%
Substance-P receptor
  IC50: 0.13 nM
Gerbillinae [2]
  inhibition in vivo at 1 mg/kg: 87%

## Cn1c(-c2ccc(Cl)cc2)c(CCC(=O)N2CCC(Nc3ccccc3)CC2)c2cc(Cl)ccc21
Substance-P receptor
  IC50: 1.3 nM

## Cn1c(-c2ccc(Cl)cc2)c(CCC(=O)N2CCN(C3CCCCC3)CC2)c2cc(Cl)ccc21
Gerbillinae [3]
  inhibition in vivo at 3 mg/kg: 100%
Substance-P receptor
  IC50: 0.35 nM
Gerbillinae [4]
  inhibition in vivo at 3 mg/kg: 7%

## Cn1c(-c2ccc(Cl)cc2)c(CCC(=O)N2CCN(CC(C)(C)C)CC2)c2cc(Cl)ccc21
Substance-P receptor
  IC50: 2 nM

## Cn1c(-c2ccc(Cl)cc2)c(CCC(=O)N2CCC(F)(Cc3ccccc3)CC2)c2cc(Cl)ccc21
Substance-P receptor
  IC50: 0.55 nM

## Cn1c(-c2ccc(Cl)cc2)c(CCC(=O)N2CCC(Cc3ccccc3)CC2)c2cc(Cl)ccc21
Substance-P receptor
  IC50: 2.2 nM

## Cn1c(-c2ccc(Cl)cc2)c(CCC(=O)N2CCN(Cc3ccccc3)CC2)c2cc(Cl)ccc21
Gerbillinae [3]
  inhibition in vivo at 3 mg/kg: 100%
Substance-P receptor
  IC50: 0.3 nM
Gerbillinae [4]
  inhibition in vivo at 3 mg/kg: 17%

## CC(C)N1CCN(C(=O)CCc2c(-c3ccc(Cl)cc3)n(C)c3ccc(Cl)cc23)CC1
Substance-P receptor
  IC50: 13 nM

## Cn1c(-c2ccc(Cl)cc2)c(CCC(=O)N2CCN(CC3CC3)CC2)c2cc(Cl)ccc21
Substance-P receptor
  IC50: 0.78 nM

## Cn1c(-c2ccc(Cl)cc2)c(CCC(=O)N2CCN(Cc3ccccc3)C(=O)C2)c2cc(Cl)ccc21
Substance-P receptor
  IC50: 0.39 nM

## CC(C)CCN1CCN(C(=O)CCc2c(-c3ccc(Cl)cc3)n(C)c3ccc(Cl)cc23)CC1
Substance-P receptor
  IC50: 0.34 nM

## Cn1c(-c2ccc(Cl)cc2)c(CCC(=O)N2CCN(CC3CCCCC3)CC2)c2cc(Cl)ccc21
Substance-P receptor
  IC50: 2.9 nM

## Cn1c(-c2ccc(Cl)cc2)c(CCC(=O)N2CCN(CC(=O)Nc3ccccc3)CC2)c2cc(Cl)ccc21
Substance-P receptor
  IC50: 30 nM

## COc1ccccc1N1CCN(C(=O)CCc2c(-c3ccc(Br)cc3)[nH]c3ccc(C)cc23)CC1
[5]
  bioavailability: 3%
[6]
  half-life: 1.4 h
Gerbillinae [7]
  inhibition in vivo at 3 mg/kg: 46%
[8]
  Tmax: 1.1 h
[9]
  clearance: 179 mL/min/kg
[10]
  MRT: 0.9 h
[11]
  Vd: 9.5 L/kg
[12]
  Cmax: 2 ng/mL

## Cn1c(-c2ccc(Cl)cc2)c(CCC(=O)N2CCC(O)(Cc3ccccc3)CC2)c2cc(Cl)ccc21
Gerbillinae [13]
  ID50: 0.3 mg/kg and 0.9 mg/kg
[5]
  bioavailability: 3%
[8]
  Tmax: 1.2 h
Substance-P receptor
  IC50: 0.21 nM
[14]
  half-life: 3.1 h
[10]
  MRT: 1.8 h
[11]
  Vd: 3.5 L/kg
[12]
  Cmax: 4 ng/mL

## Cn1c(-c2ccc(Cl)cc2)c(CCC(=O)N2CCC(CO)(c3ccccc3)CC2)c2cc(Cl)ccc21
Substance-P receptor
  IC50: 55 nM

## CCC(=O)N(c1ccccc1)C1CCN(C(=O)CCc2c(-c3ccc(Cl)cc3)n(C)c3ccc(Cl)cc23)CC1
Gerbillinae [3]
  Inhibition: 100%
Substance-P receptor
  IC50: 0.16 nM
Gerbillinae [4]
  Inhibition: 50%
